In US20160311914A1, “USE OF B LYMPHOCYTE STIMULATOR PROTEIN ANTAGONISTS TO PROMOTE TRANSPLANTATION TOLERANCE” (The Trustees of the University of Pennsylvania, priority 2009, published 2016):

How the values were obtained:
[1] = test system: Streptozotocin-treated diabetic BALB/c mice transplanted with B6 islets; test: Islet allograft survival, B6 islets transplanted into Streptozotocin-treated diabetic BALB/c mice; assay type: in vivo, mouse; conditions: FIG. 2
Procedure: (§1) FIG. 1 is a timeline detailing the administration of anti-B Lymphocyte Stimulator (anti-BLys™) antibodies and Rapamycin in Streptozotocin-treated diabetic mice transplanted with islets from another mouse strain.
(§2) FIG. 2 is a graph illustrating the percent survival (y-axis) versus time in days (x-axis) for Streptozotocin-treated diabetic BALB/c mice transplanted with B6 islets. Mice were administered Rapamycin (Rapa) (-□-); anti-B Lymphocyte Stimulator (anti-BLys™) antibodies and Rapamycin (anti-BLys™/Rapa) (-Δ-); or neither (no treatment; control) (-⋄-) in accordance with the timeline set forth in FIG. 1.
(§3) BLyS™ regulates mature B-lymphocyte survival and negative selection at the transitional to follicular (TR:FO) tolerance checkpoint. To determine the effect of BLyS™ in an in vivo allograft model, murine islet cells from B6 and BALB/c donor mice were transplanted into Streptozotocin-treated diabetic BALB/c and B6 mice, respectively. The recipient mice were treated with a regimen consisting of a B-lymphocyte depleting dose of a neutralizing anti-BLyS™ mAb (100 μg) on days 10 and 1 post-transplantation, followed by a weekly maintenance taper (50 μg×2 wks, 25 μg×2 wks, 10 μg×2 wks, and 5 μg×2 wks). Starting on the day of islet transplantation, the Streptozotocin treated diabetic recipients were treated with 0.5 mg/kg Rapamycin every other day for two weeks.

[2] = test system: Streptozotocin-treated diabetic B6 mice transplanted with BALB/c islets; test: Islet allograft survival, BALB/c islets transplanted into Streptozotocin-treated diabetic B6 mice; assay type: in vivo, mouse; conditions: FIG. 3
Procedure: as §1
as §2, with “3” for “2”, “B6” for “BALB/c”, “BALB/c” for “B6”
as §3

CO[C@H]1C[C@@H]2CC[C@@H](C)[C@@](O)(O2)C(=O)C(=O)N2CCCC[C@H]2C(=O)O[C@H]([C@H](C)C[C@@H]2CC[C@@H](O)[C@H](OC)C2)CC(=O)[C@H](C)/C=C(\C)[C@@H](O)[C@@H](OC)C(=O)[C@H](C)C[C@H](C)/C=C/C=C/C=C/1C [Rapamycin]
mean survival time (MST) [1]: 61 days | mean survival time (MST) [2]: 39 days
